Results: article PMC11661291, “Unique structural features in a deep-sea CYP51 relate to high pressure adaptation” (Research Square, 2024)

Experiments:
[1] = biological target: T1, C. armatus CYP51 (Coryphaenoides armatus, UniProt Z9AQN8BZD8); experiment: Reconstituted catalytic activity, steady-state kinetic analysis of sterol 14α-demethylation; settings: 0.25 μM P450, 1 μM CPR, 1 min reaction, 37 °C
Experimental: (§1) The samples were preincubated for 3 min at 37 °C in a shaking water bath, the reaction was initiated by the addition of 100 μM NADPH and stopped by the extraction of sterols with ethyl acetate. The extracted sterols were dried, dissolved in 100 μL of methanol, and the products were analyzed by reversed-phase HPLC equipped with a β-RAM detector (INUS Systems) using a Nova-Pak 3.9 mm × 150 mm (4 μm) octadecylsilane (C18) HPLC column. The products were separated with an isocratic mobile phase composed of acetonitrile and methanol (4:1 (v/v)) at a flow rate of 0.75 mL/min[9]. Michaelis-Menten parameters were calculated using GraphPad Prism. The kcat and Km values for each reaction were determined by fitting the data to a Michaelis–Menten hyperbola, with the reaction rates (nmol product formed/nmol P450/min) being plotted versus total substrate concentration.

[2] = biological target: T1, C. armatus CYP51; experiment: Spectral titrations with sterol substrates (type I spectral response); settings: for Low-to-high spin state transition in the heme iron / Change in absorbance, ΔAmax per μM P450: sterol 0.25–3 μM; for Low-to-high spin state transition in the heme iron: 22 °C; for Change in absorbance, ΔAmax per μM P450: optical pathlength 1 cm
Experimental: Equal amounts of the HPCD solution were added to the reference cuvette to correct for the solvent-induced spectral perturbations, and the difference spectra were taken in the wavelength range of 350–500 nm. The apparent spectral dissociation constants of the enzyme-substrate complex (Kd) were calculated in GraphPad Prism software by fitting the data for the substrate-induced absorbance changes Δ(A390-A423) versus substrate concentration to a one site-total binding equation (binding-saturation).

[3] = biological target: T1, C. armatus CYP51; experiment: Spectral titrations with azole-based ligands
Experimental: Titrations with azole-based compounds were carried out at 0.5 μM P450 concentration in 5-cm optical path length cuvettes. Aliquots of 0.1 mM compounds dissolved in dimethyl sulfoxide (DMSO) were added to the sample cuvette, with each titration step being 0.1 μM. At each step, the corresponding volume of DMSO was added to the reference cuvette. The apparent spectral dissociation constants (Kd) were calculated in GraphPad Prism software as described for human CYP51[21].

[4] = system: human CYP51; design: method as in PMID 27313059; settings: 50-fold molar excess of inhibitor over enzyme, 1-hour reaction; cited from earlier work
[5] = biological target: human CYP51; design: method as in PMID 27313059; settings: azole ligand; read-out: apparent dissociation constant (Kd); cited from earlier work
[6] = biological target: T1, C. armatus CYP51; experiment: Inhibition of reconstituted enzymatic activity (decrease in substrate conversion in 1 h reaction); settings: enzyme/inhibitor/substrate 1:50:50, 60 min, 0.5 μM P450
Experimental: as §1

[7] = system: C=C(CC[C@@H](C)C1CC[C@@]2(C)C3=C(CC[C@]12C)[C@@]1(C)CC[C@H](O)C(C)(C)C1CC3)C(C)C; experiment: purified protein, by the assay type; settings: other: 0.25 μM P450, 1 μM CPR, 1 min reaction, 37 °C
Experimental: as §1

[8] = system: C=C(CC[C@@H](C)[C@H]1CC[C@@]2(C)C3=C(CC[C@]12C)[C@@]1(C)CC[C@H](O)[C@@H](C)[C@@H]1CC3)C(C)C; experiment: purified protein, by the assay type; settings: other: 0.25 μM P450, 1 μM CPR, 1 min reaction, 37 °C
Experimental: as §1

[9] = system: CC(C)=CCC[C@@H](C)[C@H]1CC[C@@]2(C)C3=C(CC[C@]12C)[C@@]1(C)CC[C@H](O)C(C)(C)[C@@H]1CC3; experiment: purified protein, by the assay type; settings: other: 0.25 μM P450, 1 μM CPR, 1 min reaction, 37 °C
Experimental: as §1

[10] = biological target: T1, C. armatus CYP51; experiment: Stabilizing effect of TMAO registered by CO-binding spectra
Experimental: Absorption spectra (270–700 nm) were recorded at 22 °C using a dual-beam Shimadzu UV-2600i spectrophotometer and software UVProbe2.71. The P450 concentration was determined from the Soret band absorbance in the absolute spectrum, the extinction coefficient 117 mM^−1 cm^−1 for the low-spin ferric form or 91 mM^−1 cm^−1 for the reduced (ferrous) carbon monoxide (CO) complex in the difference spectra[51].The spin state of the P450 samples was estimated from the absolute spectra using the ratio (ΔA393–470/ΔA417–470), with values of 0.35 and 2.0 corresponding to 100% low- and 100% high-spin iron, respectively.
After data collection the crystals were dissolved in phosphate buffered saline (PBS, Gibco). UV-visible absolute absorption spectra (270–700 nm) were recorded at room temperature using a single beam spectrophotometer NanoVue,4282 (CE Healthcare) (Figure S4A). CO-binding difference absorption spectra (400–500 nm) were recorded using a dual-beam Shimadzu UV-2600i spectrophotometer as follows. The CO gas was bubbled through the protein solution, which was then divided into two cuvettes serving as a blank and standard, respectively. The baseline was taken, and a few crystals of sodium dithionate were added to the sample cuvette (Figure S4B). The corresponding spectra of the original protein sample that was used for crystallization were taken for comparison.

T1 sequence (Z9AQN8BZD8 6-449 limits assumed): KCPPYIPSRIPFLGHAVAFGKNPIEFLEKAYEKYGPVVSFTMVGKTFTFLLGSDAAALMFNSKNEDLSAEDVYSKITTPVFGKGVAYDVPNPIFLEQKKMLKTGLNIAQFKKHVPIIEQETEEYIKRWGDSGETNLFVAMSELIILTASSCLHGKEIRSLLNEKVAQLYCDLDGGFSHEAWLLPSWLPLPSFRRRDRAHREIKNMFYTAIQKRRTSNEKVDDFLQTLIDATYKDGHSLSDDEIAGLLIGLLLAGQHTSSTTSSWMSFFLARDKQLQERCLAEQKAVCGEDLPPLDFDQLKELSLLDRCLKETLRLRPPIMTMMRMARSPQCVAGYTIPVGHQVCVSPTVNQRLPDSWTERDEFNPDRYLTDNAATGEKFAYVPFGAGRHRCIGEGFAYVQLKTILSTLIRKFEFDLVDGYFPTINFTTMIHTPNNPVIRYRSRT

Q: With `C=C(CC[C@@H](C)[C@H]1CC[C@@]2(C)C3=C(CC[C@]12C)[C@@]1(C)CC[C@H](O)[C@@H](C)[C@@H]1CC3)C(C)C` [Obtusifoliol] as the compound, how does the kcat [1] read?
A: Its kcat is 0.865 s⁻¹.

Q: And the Kd [2]?
A: The Kd was 560 nM.

Q: And the “Low-to-high spin state transition in the heme iron” value (“Low-to-high spin state transition” for short) ([2]; P450 2 μM)?
A: The value was 13%.

Q: And the “Change in absorbance, ΔAmax per μM P450” value ([2]; P450 2 μM)?
A: The value was 14.

Q: Which results are given for `CC(=O)N1CCN(c2ccc(OCC3COC(Cn4ccnc4)(c4ccc(Cl)cc4Cl)O3)cc2)CC1` (stereo not drawn) [ketoconazole]?
A: Kd [3]: 10 nM; lanosterol converted in presence of inhibitor [4]: 100%; Kd [5]: 70 nM

Q: Which Kd [3] does the source give for `CCC(C)n1ncn(-c2ccc(N3CCN(c4ccc(OCC5COC(Cn6cncn6)(c6ccc(Cl)cc6Cl)O5)cc4)CC3)cc2)c1=O` (stereo not drawn) [itraconazole] here?
A: Its Kd is 620 nM.

Q: What about the “inhibition of C. armatus CYP51 activity” value [6] of the same compound?
A: The value was “did not have any inhibitory effect”.

Q: What about the Kd [5] of the same compound?
A: Its Kd is 1290 nM.

Q: Which “inhibition of C. armatus CYP51 activity” value [6] does the source give for `O[C@@](Cn1cnnn1)(c1ccc(F)cc1F)C(F)(F)c1ccc(-c2ccc(OCC(F)(F)F)cc2)cn1` [oteseconazole] here?
A: Its value is “did not have any inhibitory effect”.

Q: Which Km [7] does the source give for “C. armatus CYP51 (Coryphaenoides armatus)” here?
A: The Km was 13.0 µM.

Q: What about the kcat [7] of the same compound?
A: Its kcat is 1.03 s⁻¹.

Q: And the kcat/Km [7]?
A: Its kcat/Km is 80000 M⁻¹ s⁻¹.

Q: What about the Km [8] of the same compound?
A: The Km was 7.9 µM.

Q: What about the kcat [8] of the same compound?
A: Its kcat is 0.865 s⁻¹.

Q: What about the kcat/Km [8] of the same compound?
A: The kcat/Km was 110000 M⁻¹ s⁻¹.

Q: What about the Km [9] of the same compound?
A: Its Km is 8.1 µM.

Q: And the kcat [9]?
A: The kcat was 0.797 s⁻¹.

Q: What about the kcat/Km [9] of the same compound?
A: The kcat/Km was 98300 M⁻¹ s⁻¹.

Q: Which kcat [1] does the source give for `CC(C)=CCC[C@@H](C)[C@H]1CC[C@@]2(C)C3=C(CC[C@]12C)[C@@]1(C)CC[C@H](O)C(C)(C)[C@@H]1CC3` [Lanosterol] here?
A: Its kcat is 0.797 s⁻¹.

Q: And the Kd [2]?
A: The Kd was 770 nM.

Q: What about the “Low-to-high spin state transition” value ([2]; P450 2 μM) of the same compound?
A: The value was 22%.

Q: What about the “Change in absorbance, ΔAmax per μM P450” value ([2]; P450 2 μM) of the same compound?
A: The value was 24.

Q: With `CC[C@@H]([C@H](C)O)n1ncn(-c2ccc(N3CCN(c4ccc(OC[C@@H]5CO[C@@](Cn6cncn6)(c6ccc(F)cc6F)C5)cc4)CC3)cc2)c1=O` [posaconazole] as the compound, how does the “inhibition of C. armatus CYP51 activity” value [6] read?
A: Its value is “did not have any inhibitory effect”.

Q: With `C[N+](C)(C)[O-]` [TMAO, trimethylamine oxide] as the compound, how does the “spectral response in the heme iron” value [10] read?
A: Its value is “does not cause any spectral response”.

Q: And the “P450 recovery after overnight incubation (CO-binding spectra)” value ([10]; 10 μM TMAO, overnight storage at 4 °C in PBS)?
A: The value was 90%.

Q: With `N#Cc1ccc(COc2ccc(C#Cc3ccc(C(F)(F)[C@](O)(Cn4cnnn4)c4ccc(F)cc4F)nc3)cc2)cc1` [VT-1598] as the compound, how does the “inhibition of C. armatus CYP51 activity” value [6] read?
A: The value was “did not have any inhibitory effect”.

Q: With `C[C@@H](c1nc(-c2ccc(C#N)cc2)cs1)[C@](O)(Cn1cncn1)c1cc(F)ccc1F` [isavuconazole] as the compound, how does the “inhibition of C. armatus CYP51 activity” value [6] read?
A: Its value is “did not have any inhibitory effect”.

Q: For `C[C@@H](c1ncncc1F)[C@](O)(Cn1cncn1)c1ccc(F)cc1F` [voriconazole], which Kd [3] is on record?
A: The Kd was 610 nM.

Q: What about the “inhibition of C. armatus CYP51 activity” value [6] of the same compound?
A: The value was “did not have any inhibitory effect”.

Q: And the Kd [5]?
A: The Kd was 2530 nM.

Q: Which kcat [1] does the source give for `C=C(CC[C@@H](C)C1CC[C@@]2(C)C3=C(CC[C@]12C)[C@@]1(C)CC[C@H](O)C(C)(C)C1CC3)C(C)C` (stereo partly drawn) here?
A: Its kcat is 1.03 s⁻¹.

Q: What about the Kd ([2]; read-out: Kd (apparent spectral dissociation constant), sterol substrate, P450 2 μM) of the same compound?
A: Its Kd is 1020 nM.

Q: And the “Low-to-high spin state transition” value ([2]; P450 2 μM)?
A: The value was 27%.

Q: What about the “Change in absorbance, ΔAmax per μM P450” value ([2]; P450 2 μM) of the same compound?
A: The value was 30.
